Data as given in patent US9573895B2, “Tetracycline compounds” (Tetraphase Pharmaceuticals, Inc., priority 2012, dated 2017).
Read-outs that look alike come from different tables or passages of the source.

Columns and labels:
Assay type in all cases: cell-based
[1] = test system: Staphylococcus aureus SA161 (HA-MRSA, tetracycline-resistant, tet(M)); experiment: MIC assay SA161
[2] = test system: Enterococcus faecalis EF159 (Tetracycline-resistant, tet(M)); experiment: MIC assay EF159; settings: Table 5
[3] = test system: Enterococcus faecalis EF327 (Wound isolate (US) tet(M)); experiment: MIC assay EF327
[4] = test system: Enterococcus faecium EF404 (Blood isolate (US) tet(M)); experiment: MIC assay EF404
[5] = test system: Streptococcus pneumoniae SP106 (ATCC 49619); experiment: MIC assay SP106; settings: Table 5
[6] = test system: Streptococcus pneumoniae SP160 (Tetracycline-resistant, tet(M)); experiment: MIC assay SP160
[7] = test system: Escherichia coli EC107 (ATCC 25922); experiment: MIC assay EC107
[8] = test system: Escherichia coli EC155 (Tetracycline-resistant, tet(A))
[9] = test system: Enterobacter cloacae EC603 (Urine isolate (Spain)); experiment: MIC assay EC603
[10] = test system: Klebsiella pneumoniae KP153 (Tetracycline-resistant, tet(A), MDR, ESBL+); experiment: MIC assay KP153; settings: Table 5
[11] = test system: Klebsiella pneumoniae KP457 (2009 ESBL+, CTX-M, OXA); experiment: MIC assay KP457
[12] = test system: Proteus mirabilis PM385 (Urine ESBL+ isolate); experiment: MIC assay PM385
[13] = test system: Pseudomonas aeruginosa PA555 (ATCC BAA-47, wild type strain PAO1); experiment: MIC assay PA555
[14] = test system: Acinetobacter baumannii AB250 (Cystic fibrosis isolate, MDR); experiment: MIC assay AB250
[15] = test system: Stenotrophomonas maltophilia SM256 (Cystic fibrosis isolate, MDR); experiment: MIC assay SM256
[16] = test system: Burkholderia cenocepacia BC240 (Cystic fibrosis isolate, MDR); experiment: MIC assay BC240
KP194 7E+05 = experiment: MIC assay KP194; settings: Table 5
Text: The assays were run as follows.

[17] = test system: Pseudomonas aeruginosa PA556 (Multiple-Mex efflux pump knockout strain)
[18] = test system: Pseudomonas aeruginosa PA1145 (Strain used in murine pneumonia model); experiment: MIC assay PA1145; settings: control compounds, numeric

CN(C)c1ccc(O)c2c1C[C@H]1C[C@H]3[C@H](N(C)C)C(O)=C(C(N)=O)C(=O)[C@@]3(O)C(O)=C1C2=O [Minocycline, minocycline]
0.5 µg/mL: MIC EC107 25922 ([7]; Table 5) | MIC EC107 25922 ([7]; control compounds, numeric) | MIC SM256 ([15]; Table 5) | MIC SM256 ([15]; Table 6) | MIC SM256 ([15]; Table 7)
8 µg/mL: MIC SA161 tetM ([1]; Table 5) | MIC SA161 tetM ([1]; Table 6) | MIC SA161 tetM ([1]; Table 7) | MIC SA161 tetM ([1]; control compounds, numeric) | MIC EF404 tetM ([4]; Table 7) | MIC EF404 tetM ([4]; control compounds, numeric) | MIC EC155 tetA ([8]; Table 5) | MIC EC155 tetA ([8]; Table 6) | MIC KP153 tetA [10] | MIC KP457 CTX-M-15 ([11]; Table 6) | MIC KP457 CTX-M-15 ([11]; Table 7) | MIC KP457 CTX-M-15 ([11]; control compounds, numeric) | MIC AB250 ([14]; Table 5) | MIC AB250 ([14]; Table 6) | MIC AB250 ([14]; Table 7) | MIC BC240 ([16]; Table 5) | MIC BC240 ([16]; Table 6) | MIC BC240 ([16]; Table 7)
16 µg/mL: MIC EF159 tetM [2] | MIC PM385 ([12]; Table 7) | MIC PM385 ([12]; control compounds, numeric) | MIC PA555 BAA-47 ([13]; control compounds, numeric)
33 µg/mL: MIC EC603 tetA ([9]; Table 6) | MIC EC603 tetA ([9]; Table 7)
32 µg/mL: MIC EF327 tetM ([3]; Table 7) | MIC EF327 tetM ([3]; control compounds, numeric) | MIC (KP194 7E+05)
0.015 µg/mL: MIC SP106 49619 [5]
2 µg/mL: MIC SP160 tetM ([6]; Table 4) | MIC SP160 tetM ([6]; Table 5) | MIC SP160 tetM ([6]; Table 7) | MIC SP160 tetM ([6]; control compounds, numeric)

CN(C)[C@@H]1C(O)=C(C(N)=O)C(=O)[C@@]2(O)C(O)=C3C(=O)c4c(O)cccc4C[C@H]3C[C@@H]12 [Sancycline, sancycline]
0.25 µg/mL: MIC SP106 49619 [5]
1 µg/mL: MIC PA556 ([17]; Table 5) | MIC PA556 ([17]; Table 6) | MIC PA556 ([17]; Table 7) | MIC SM256 ([15]; Table 5) | MIC SM256 ([15]; Table 6) | MIC SM256 ([15]; Table 7)
8 µg/mL: MIC ([11]; Klebsiella pneumoniae, read-out: MIC KP457 CTX-M-15) | MIC KP457 CTX-M-15 ([11]; Table 6) | MIC KP457 CTX-M-15 ([11]; Table 7) | MIC PM385 ([12]; Table 7) | MIC PM385 ([12]; control compounds, numeric)
32 µg/mL: MIC EC155 tetA ([8]; Table 5) | MIC EC155 tetA ([8]; Table 6) | MIC EC155 tetA ([8]; Table 7) | MIC EC155 tetA ([8]; control compounds, numeric) | MIC KP153 tetA [10] | MIC PA555 BAA-47 ([13]; Table 7) | MIC PA555 BAA-47 ([13]; control compounds, numeric) | MIC (KP194 7E+05)
16 µg/mL: MIC AB250 ([14]; Table 5) | MIC AB250 ([14]; Table 6) | MIC AB250 ([14]; Table 7)

CN(C)c1cc(NC(=O)CNC(C)(C)C)c(O)c2c1C[C@H]1C[C@H]3[C@H](N(C)C)C(O)=C(C(N)=O)C(=O)[C@@]3(O)C(O)=C1C2=O [Tigecycline, tigecycline]
8 µg/mL: MIC AB250 ([14]; Table 5) | MIC AB250 ([14]; Table 6) | MIC AB250 ([14]; Table 7) | MIC (KP194 7E+05)
0.5 µg/mL: MIC EC155 tetA ([8]; Table 5) | MIC EC155 tetA ([8]; Table 6) | MIC EC155 tetA ([8]; Table 7) | MIC EC155 tetA ([8]; control compounds, numeric)
4 µg/mL: MIC PM385 ([12]; Table 7) | MIC PM385 ([12]; control compounds, numeric)
16 µg/mL: MIC PA555 BAA-47 ([13]; Table 7) | MIC PA555 BAA-47 ([13]; control compounds, numeric) | MIC PA1145 Vivisource [18]
0.016 µg/mL: MIC SP106 49619 [5]
1 µg/mL: MIC KP153 tetA [10] | MIC KP457 CTX-M-15 ([11]; Table 6) | MIC KP457 CTX-M-15 ([11]; Table 7) | MIC KP457 CTX-M-15 ([11]; control compounds, numeric) | MIC SM256 ([15]; Table 5) | MIC SM256 ([15]; Table 6) | MIC SM256 ([15]; Table 7)
0.25 µg/mL: MIC PA556 ([17]; Table 5) | MIC PA556 ([17]; Table 6) | MIC PA556 ([17]; Table 7)
